Literature values, collected in paper PMC7467712, “Physical Mechanisms Governing Substituent Effects on Arene–Arene Interactions in a Protein Milieu” (The Journal of Physical Chemistry. B, 2020).

Tested on: Mus musculus AChE
Parameters: method as in PMID 23984975
Conditions: 95% confidence interval within parentheses, at least four replicates

| Structure (SMILES) | IC50 [µM] |
| --- | --- |
| CCN(CC)CCNS(=O)(=O)Cc1ccccc1 [AL029] | 139 |
| CCN(CC)CCNS(=O)(=O)c1cccc(OC)c1 [AL041] | 7 |
| CCN(CC)CCNS(=O)(=O)c1cccc(C(F)(F)F)c1 [AL040] | 22 |
| CCN(CC)CCNS(=O)(=O)Cc1ccc(C(F)(F)F)cc1 [AL037] | 12 |
| CCN(CC)CCNS(=O)(=O)Cc1ccc(Cl)cc1 [AL011] | 12 |
| CCN(CC)CCNS(=O)(=O)Cc1ccc(F)cc1 [AL036] | 40 |
